The record followed here is patent US6921824B1, “Ruthenium dimeric complexes suitable as antimetastatic and antineoplastic agents” (priority 1999, dated 2005).

For data set [1], the system named is MCa mammary carcinoma. Description: Pre-surgical treatment: prevention of lung metastases formation in mice with MCa mammary carcinoma. It counts as in vivo. Conditions: for Lung metastases Number % T/C / Lung metastases weight % T/C: Treated/Control; for Lung metastases Number mean / Lung metastases weight (mg) mean: evaluated day 29; for Body weight % var: variation day 11 to day 16 vs untreated controls. The procedure: In vivo tests of the activity of the compounds according to the present invention in mice affected from MCa mammary carcinoma: prevention activity in the formation of lung metastases.
Five groups of CBA kin female mice weighing 23±3 g were inoculated with […] viable cells (as determined by the Trypan blue exclusion) of MCa mammary carcinoma in 0.05 ml Dulbecco's pH 7.4 buffered calcium and magnesium-free solution (PBS), by intramuscular injection with a sterile insulin syringe. The tumour cells were derived from donors of the same strain, injected with the same tumour cells, following the same procedures 2 weeks before. The suspension of tumour cells was prepared in PBS by mechanically mincing the tumour mass obtained from donor mice, and further removing tissue debris and cells by, respectively, filtration through a double layer of sterile gauze and centrifugation at 250× g for 10 minutes. Kin animals were obtained from a colony from Chester Beatthy from London (UK) which were grown in the University of Trieste animal house accordingly to the procedures accepted for the rearing of kin animals. The MCa mammary carcinoma tumour cell-line derived from a stock, stored in liquid nitrogen, of tumour cells obtained originally from Rudjer Boskovic Institute of Zagreb (HR).
From day 11 to day 16, after tumour cells implantation, five mice groups were treated intraperitoneally with a sterile insulin syringe, respectively with: • Group 1 Control (10 animals): 10 ml/kg of body weight/day of sterile and pyrogen-free physiological solution; • Group 2 (two subgroups a,b of five animals each): 7.5 (a), 15 (b) mg/kg of body weight/day of the compound prepared as described in Example 4 in sterile and pyrogen-free physiological solution; • Group 3 (2 subgroups c,d of five animals each): 15 (c), 30 (d) mg/kg of body weight/day of the compound prepared as described in Example 7 in sterile and pyrogen-free physiological solution; • Group 4 (2 subgroups e,f of 5 animals each): 25 (e), 50 (f) mg/kg of body weight/day of the compound prepared as described in Example 8 in sterile and pyrogen-free physiological solution; • Group 5 (2 subgroups g,h of 5 animals each): 12.5 (g), 25 (h) mg/kg of body weight/day of the compound prepared as described in Example 10 in sterile and pyrogen-free physiological solution.
The administered dosages were either approximated to LD0.1, or to half of it or to a quarter of it, as calculated separately in animals of the same strain and gender and with the same body weight, for an intraperitoneal treatment lasting 6 consecutive days, according to the method of Lichtfield and Wilcoxon, and with an observation time of 10 days since the last dose.
On day 17 since tumour cells implantation, the primary tumour was surgically removed, after general anesthesia of the animals by intraperitoneal injection of 125 mg/kg of Ketamine.
On day 29 since tumour cells implantation, the mice were sacrificed by cervical dislocation for the evaluation of lung metastases. The lungs were abducted from the animals immediately after sacrifice, divided in single lobes which then examined immediately with a low-magnification microscope equipped with a graduated ocular-grid for the measurement of the size of the metastases in which the a and b orthogonal axes (a≦b) were identified. Metastases were classified by size and the metastatic tumour weight for each animal was calculated as the sum of each single metastasis weight, each of them considered as a rotation solid developed around the above mentioned axes and calculated according to the formula (π/6)·a^2·b. The experimental data obtained were then processed by appropriate statistical tests. […]

Data set [2] deals with murine TS/A adenocarcinoma cells. The data set can be described thus: In vitro cytotoxicity, MTT analysis (mitochondrial activity). It counts as cell-based. Here is the method: In vitro cytotoxicity of complexes of the present invention on murine TS/A adenocarcinoma cells.
4×10^3 murine TS/A adenocarcinoma cells resuspended in 200 μl RPMI-1640 medium supplemented with 10% FCS (fetal calf serum), 2 mM glutamine and 50 μg/ml gentamicin sulphate, were seeded in a 96-wells plate. After 24 hours incubation at 37° C., in 5% CO2, the complexes as described in example 4 (A), in example 7 (B), in example 8 (C) and in example 10 (D), each solubilised in RPMI-1640 medium supplemented with 5% FCS, 2 mM glutamine and 50 μg/ml gentamicin sulphate, were added to the cells, each at a final concentration of 10^−4, 10^−5 and 10^−6 M. Cell viability tests were performed after 24, 48 and 72 hours of exposure to the compounds by assessing both the effect on protein synthesis and on mitochondrial activity by means of colorimetric assays, respectively the solphorodamine B test (SRB) and the MTT analysis. Each value (optical density) is the average percentage ±S.E. versus the untreated controls.
Values such as *p<0.05, **p<0.01 indicate average values statistically different from the controls. Analysis of Variance and Dunnet test were used in the comparison analysis.
The results are reported in Table 3, wherein both the effect on protein synthesis (SRB) and the mitochondrial activity (MTT) are reported for each complexes tested at different dosages after different exposure time.

Where [3] appears, read: 12.5 mg/kg/die i.p. day 11-16, pre-surgical.
Setting [4] is: 25 mg/kg/die i.p. day 11-16, pre-surgical.
Where [5] appears, read: at two dose levels, pre-surgical treatment.

Marks after values point to notes of the source that are not given here.

In the case of `C[SH](C)(=O)[Ru-]([Cl])([Cl])([Cl])([Cl])[n+]1ccc(CCc2cc[n+]([Ru-]([Cl])([Cl])([Cl])([Cl])[SH](C)(C)=O)cc2)cc1.[Na+].[Na+]` [Example 10, [Na]2[trans-RuCl4(Me2SO)]2(μ-etbipy)], the “Lung metastases Number % T/C” value is 15% in data set [1] (setting [3]) and 25% in data set [1] (setting [4]). Besides, the figures for the “Lung metastases weight % T/C” value in data set [1] (setting [3]) and in data set [1] (setting [4]) were 6% and 1%, respectively. In addition, the “Lung metastases Number mean” value in data set [1] (setting [3]) was found to be 8.0; in data set [1] (setting [4]) it was 13.0. Moreover, the “Lung metastases weight (mg) mean” value came to 4.6 mg in data set [1] (setting [3]) and 1.2 mg in data set [1] (setting [4]). Moreover, the “Body weight % var” value in data set [1] (12.5 mg/kg/die i.p. day 11-16) is listed as −2.8%; in data set [1] (25 mg/kg/die i.p. day 11-16), −1.1%. In data set [1] (MCa mammary carcinoma model of the CBA mouse), the “Selectivity of action on lung metastases versus primary tumour” value was “act selectively on lung metastases”. Besides, the “Number of lung metastases (in words)” value in data set [1] (setting [5]) is on record as “marked reduction”. In data set [1] (setting [5]), the “Weight of lung metastases (in words)” value is “even more marked reduction”. Besides, the “MTT optical density, average percentage ±S.E. versus untreated controls” value is 76 ± 9% in data set [2] (10^−4 M, exposure time 24 h); 65 ± 4** % in data set [2] (10^−4 M, exposure time 48 h); 76 ± 4** % in data set [2] (10^−4 M, exposure time 72 h); 97 ± 12% in data set [2] (10^−5 M, exposure time 24 h); 93 ± 2% in data set [2] (10^−5 M, exposure time 48 h); 84 ± 5% in data set [2] (10^−5 M, exposure time 72 h). Further, the “MTT optical density, average percentage ±S.E. versus untreated controls” value in data set [2] (10^−6 M, exposure time 24 h) turned out to be 114 ± 7%; in data set [2] (10^−6 M, exposure time 48 h), 109 ± 4%; in data set [2] (10^−6 M, exposure time 72 h) it was 88 ± 4%.
